Data taken from patent publication US9457093B2, “Solid dispersions of a ERB2 (HER2) inhibitor” (Array BioPharma Inc., priority 2011, dated 2016).

Experiment: Dissolution testing at pH 6.5 in phosphate buffer at 37° C.
Assay type: physicochemical
Conditions: pH 6.5 phosphate buffer, about 240 minutes
Method: Dissolution testing was performed at a pH of 6.5 in phosphate buffer. The solid dispersion was suspended in H2O and added directly to the buffer solution at 37° C. The dissolution profile was collected over a period of about 240 minutes. The results are in FIG. 2.
Dissolution testing was performed at a pH of 6.5 in phosphate buffer. The solid dispersion was suspended in H2O and added directly to the buffer solution at 37° C. The dissolution profile was collected over a period of about 240 minutes. The results are in FIG. 3.
Dissolution testing was performed at a pH of 6.5 in phosphate buffer. The solid dispersion was suspended in H2O and added directly to the buffer solution at 37° C. The dissolution profile was collected over a period of about 240 minutes. The results are in FIG. 4.
Dissolution testing was performed at a pH of 6.5 in phosphate buffer. The solid dispersion was suspended in H2O and added directly to the buffer solution at 37° C. The dissolution profile was collected over a period of about 240 minutes. The results are in FIG. 5.
Dissolution testing was performed at a pH of 6.5 in phosphate buffer. The solid dispersion was suspended in H2O and added directly to the buffer solution at 37° C. The dissolution profile was collected over a period of about 240 minutes. The results are in FIG. 6.
Dissolution testing was performed at a pH of 6.5 in phosphate buffer. […]

Cc1cc(Nc2ncnc3ccc(NC4=NC(C)(C)CO4)cc23)ccc1Oc1ccn2ncnc2c1 [Example 12, N4-(4-([1,2,4]triazolo[1,5-α]pyridin-7-yloxy)-3-methylphenyl)-N6-(4,4-dimethyl-4,5-dihydrooxazol-2-yl)quinazoline-4,6-diamine freebase hemi-ethanolate]
AUC for the free drug species: 5490 ng·h/mL | Cmax for the free drug species: 440 ng/mL
